Measurements taken from US20110044938A1 (NYCOMED GMBH, priority 2006, published 2011).

Tests used:
[1] = test system: RKO (RKOp27) human colon adenocarcinoma cells; experiment: Alamar Blue cell viability assay, anti-proliferative/cytotoxic activity on proliferating RKO subclones; type: cell-based; conditions: RKOp27, 72 h, RKO p27 uninduced (proliferating) cells, value = class bound given in Table A, read-out: −logIC50 RKO p27 uninduced (proliferating) (converted)
Summary of the method: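 RKOp27 subclones (5000 cells/well) were exposed 24 h after seeding to semi-log compound dilutions in DMEM with 10% FCS, in quadruplicate, for 72 h at 37 °C. Viability was read by Alamar Blue fluorescence (544/590 nm) relative to untreated cells (1% DMSO medium). IC50 came from concentration-effect curves and is reported as −log IC50 [mol/l].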

[2] = test system: subclones of RKO colon adenocarcinoma cells (RKOp27 or RKOp21) arrested by Ponasterone A; experiment: Alamar Blue cell viability assay, cell cycle specific mode of action: cells arrested by ectopic p27Kip1 induced by Ponasterone A versus proliferating cells; type: cell-based; conditions: Homo sapiens, RKO p27 induced (arrested) cells, 10 μM Ponasterone A, 72 hours, value = class bound given in Table A, read-out: −logIC50 RKO p27 induced (arrested) (converted)
Summary of the method: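 RKOp27 or RKOp21 cells, 15000/well in DMEM/10% FCS, either arrested by p27Kip1 induced with 10 μM Ponasterone A or proliferating without inducer; compound added after 24 h, 72 h at 37° C. Alamar Blue fluorescence (544/590 nm), viability as % of untreated cells; −log IC50 reported.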

Compound | IC50 [1] | IC50 [2]
CC(CC(=O)Nc1sc2c(c1C#N)CCC(COC(=O)N1CCCC1)C2)c1cccnc1 (stereo not shown) [Example 357, Pyrrolidine-1-carboxylic acid 3-cyano-2-(3-pyridin-3-yl-butanoylamino)-4,5,6,7-tetrahydro-benzo[b]thiophen-6-ylmethyl ester] | ≤ 501 nM | ≥ 100000 nM
COC1CN(C(=O)OC2CCc3c(sc(NC(=O)/C=C/c4cccnc4)c3C#N)C2)C1 (stereo not shown) [Example 118, 3-Methoxy-azetidine-1-carboxylic acid 3-cyano-2-((E)-3-pyridin-3-yl-allanoylamino)-4,5,6,7-tetrahydro-benzo[b]thiophen-6-yl ester] | 501 to 2000 nM | ≥ 100000 nM
CCOc1ccccc1CCC(=O)Nc1sc2c(c1C#N)CCC(OC(=O)NCc1nc(C)cs1)C2 (stereo not shown) [Example 210, (4-Methyl-thiazol-2-ylmethyl)-carbamic acid 3-cyano-2-[3-(2-ethoxy-phenyl)-propanoylamino]-4,5,6,7-tetrahydro-benzo[b]thiophen-6-yl ester] | 501 to 2000 nM | ≥ 100000 nM
N#Cc1c(NC(=O)/C=C/c2cccnc2)sc2c1CCC(COC(=O)NCCO)C2 (stereo not shown) [Example 29, (2-Hydroxy-ethyl)-carbamic acid 3-cyano-2-((E)-3-pyridin-3-yl-allanoylamino)-4,5,6,7-tetrahydro-benzo[b]thiophen-6-ylmethyl ester] | 501 to 2000 nM | ≥ 100000 nM
COc1cccc(C(C)CC(=O)Nc2sc3c(c2C#N)CCC(COC(=O)NCc2cccn2C)C3)c1 (stereo not shown) [Example 338, (1-Methyl-1H-pyrrol-2-ylmethyl)-carbamic acid 3-cyano-2-[3-(3-methoxy-phenyl)-butanoylamino]-4,5,6,7-tetrahydro-benzo[b]thiophen-6-ylmethyl ester] | 501 to 2000 nM | ≥ 50100 nM
CCn1nccc1CNC(=O)OC1CCc2c(sc(NC(=O)CC(C)c3ccccc3)c2C#N)C1 (stereo not shown) [Example 303, (2-Ethyl-2H-pyrazol-3-ylmethyl)-carbamic acid 3-cyano-2-(3-phenyl-butanoylamino)-4,5,6,7-tetrahydro-benzo[b] thiophen-6-yl ester] | ≤ 501 nM | ≥ 50100 nM
N#Cc1c(NC(=O)/C=C/c2cccnc2)sc2c1CCC(COC(=O)N1CCC(O)CC1)C2 (stereo not shown) [Example 114, 4-Hydroxy-piperidine-1-carboxylic acid 3-cyano-2-((E)-3-pyridin-3-yl-allanoylamino)-4,5,6,7-tetrahydro-benzo[b]thiophen-6-ylmethyl ester] | ≤ 501 nM | ≥ 100000 nM
COc1cccc(CCC(=O)Nc2sc3c(c2C#N)CCC(COC(=O)NCc2csc(C)n2)C3)c1 (stereo not shown) [Example 247, (2-Methyl-thiazol-4-ylmethyl)-carbamic acid 3-cyano-2-[3-(3-methoxy-phenyl)-propanoylamino]-4,5,6,7-tetrahydro-benzo[b]thiophen-6-ylmethyl ester] | ≤ 501 nM | ≥ 100000 nM
CNC(=O)OC[C@H]1CCc2c(sc(NC(=O)/C=C/c3cccnc3)c2C#N)C1 [Example 16a, (S)-Methyl-carbamic acid 3-cyano-2-((E)-3-pyridin-3-yl-allanoylamino)-4,5,6,7-tetrahydro-benzo[b]thiophen-6-ylmethyl ester] | ≤ 501 nM | ≥ 100000 nM
CCOc1ccccc1CCC(=O)Nc1sc2c(c1C#N)CCC(COC(=O)N1CCOCC1)C2 (stereo not shown) [Example 216, Morpholine-4-carboxylic acid 3-cyano-2-[3-(2-ethoxy-phenyl)-propanoylamino]-4,5,6,7-tetrahydro-benzo[b]thiophen-6-ylmethyl ester] | ≤ 501 nM | ≥ 100000 nM
Cn1nccc1CNC(=O)OCC1CCc2c(sc(NC(=O)/C=C/c3cccnc3)c2C#N)C1 (stereo not shown) [Example 46, (2-Methyl-2H-pyrazol-3-ylmethyl)-carbamic acid 3-cyano-2-((E)-3-pyridin-3-yl-allanoylamino)-4,5,6,7-tetrahydro-benzo[b]thiophen-6-ylmethyl ester] | ≤ 501 nM | ≥ 100000 nM
Cc1cc(CNC(=O)OCC2CCc3c(sc(NC(=O)CC(C)c4ccccc4)c3C#N)C2)n(C)n1 (stereo not shown) [Example 321, (2,5-Dimethyl-2H-pyrazol-3-ylmethyl)-carbamic acid 3-cyano-2-(3-phenyl-butanoylamino)-4,5,6,7-tetrahydro-benzo[b] thiophen-6-ylmethyl ester] | ≤ 501 nM | ≥ 50100 nM
Cc1oncc1CNC(=O)OCC1CCc2c(sc(NC(=O)/C=C/c3cccnc3)c2C#N)C1 (stereo not shown) [Example 71, (5-Methyl-isoxazol-4-ylmethyl)-carbamic acid 3-cyano-2-((E)-3-pyridin-3-yl-allanoylamino)-4,5,6,7-tetrahydro-benzo[b]thiophen-6-ylmethyl ester] | 501 to 2000 nM | ≥ 100000 nM
N#Cc1c(NC(=O)/C=C/c2cccnc2)sc2c1CCC(COC(=O)N1CCOCC1)C2 (stereo not shown) [Example 84, Morpholine-4-carboxylic acid-3-cyano-2-((E)-3-pyridin-3-yl-allanoylamino)-4,5,6,7-tetrahydro-benzo[b]thiophen-6-ylmethyl ester] | ≤ 501 nM | ≥ 100000 nM
CCOc1ccccc1CCC(=O)Nc1sc2c(c1C#N)CCC(OC(=O)OCc1cncs1)C2 (stereo not shown) [Example 211, Carbonic acid 3-cyano-2-[3-(2-ethoxy-phenyl)-propanoylamino]-4,5,6,7-tetrahydro-benzo[b]thiophen-6-yl ester thiazol-5-ylmethyl ester] | 501 to 2000 nM | ≥ 100000 nM
Cc1csc(CNC(=O)OCC2CCc3c(sc(NC(=O)/C=C/c4cccnc4)c3C#N)C2)n1 (stereo not shown) [Example 67, (4-Methyl-thiazol-2-ylmethyl)-carbamic acid 3-cyano-2-((E)-3-pyridin-3-yl-allanoylamino)-4,5,6,7-tetrahydro-benzo[b]thiophen-6-ylmethyl ester] | ≤ 501 nM | ≥ 100000 nM
COc1cccc(CCC(=O)Nc2sc3c(c2C#N)CCC(OC(=O)NC2CC2)C3)c1 (stereo not shown) [Example 249, Cyclopropyl-carbamic acid 3-cyano-2-[3-(3-methoxy-phenyl)-propanoylamino]-4,5,6,7-tetrahydro-benzo[b]thiophen-6-yl ester] | ≤ 501 nM | ≥ 100000 nM
CCOc1ccccc1CCC(=O)Nc1sc2c(c1C#N)CCC(OC(=O)NCc1ccccn1)C2 (stereo not shown) [Example 174, Pyridin-2-ylmethyl-carbamic acid 3-cyano-2-[3-(2-ethoxy-phenyl)-propanoylamino]-4,5,6,7-tetrahydro-benzo[b]thiophen-6-yl ester] | ≤ 501 nM | ≥ 100000 nM
N#Cc1c(NC(=O)CCc2cccnc2)sc2c1CCC(COC(=O)NCc1ccccc1)C2 (stereo not shown) [Example 157, Benzyl-carbamic acid 3-cyano-2-(3-pyridin-3-yl-propanoylamino)-4,5,6,7-tetrahydro-benzo[b]thiophen-6-ylmethyl ester] | ≤ 501 nM | ≥ 100000 nM
COc1cccc(CCC(=O)Nc2sc3c(c2C#N)CCC(COC(=O)NCc2cn(C)cn2)C3)c1 (stereo not shown) [Example 238, (1-Methyl-1H-imidazol-4-ylmethyl)-carbamic acid 3-cyano-2-[3-(3-methoxy-phenyl)-propanoylamino]-4,5,6,7-tetrahydro-benzo[b]thiophen-6-ylmethyl ester] | 501 to 2000 nM | ≥ 100000 nM
CCOc1ccccc1/C=C/C(=O)Nc1sc2c(c1C#N)CCC(OC(=O)OCCOC)C2 (stereo not shown) [Example 11, Carbonic acid 3-cyano-2-[(E)-3-(2-ethoxy-phenyl)-allanoylamino]-4,5,6,7-tetrahydro-benzo[b]thiophen-6-yl ester 2-methoxy-ethyl ester] | ≤ 501 nM | ≥ 100000 nM
CC(CC(=O)Nc1sc2c(c1C#N)CCC(OC(=O)N1CCCC1)C2)c1cccnc1 (stereo not shown) [Example 369, Pyrrolidine-1-carboxylic acid 3-cyano-2-(3-pyridin-3-yl-butanoylamino)-4,5,6,7-tetrahydro-benzo[b]thiophen-6-yl ester] | 501 to 2000 nM | ≥ 50100 nM
COc1cccc(CCC(=O)Nc2sc3c(c2C#N)CCC(OC(=O)N2CCOCC2)C3)c1 (stereo not shown) [Example 231, Morpholine-4-carboxylic acid 3-cyano-2-[3-(3-methoxy-phenyl)-propanoylamino]-4,5,6,7-tetrahydro-benzo[b]thiophen-6-yl ester] | ≤ 501 nM | ≥ 100000 nM
CCOc1ccccc1/C=C/C(=O)Nc1sc2c(c1C#N)CCC(OC(=O)NCCn1ccnc1)C2 (stereo not shown) [Example 31, (2-Imidazol-1-yl-ethyl)-carbamic acid-3-cyano-2-[(E)-3-(2-ethoxy-phenyl)-allanoylamino]-4,5,6,7-tetrahydro-benzo[b]thiophen-6-yl ester] | ≤ 501 nM | ≥ 10000 nM
N#Cc1c(NC(=O)/C=C/c2cccnc2)sc2c1CC[C@@H](COC(=O)N1CCC[C@@H](O)C1)C2 [Example 87a, (R)-3-Hydroxy-piperidine-1-carboxylic acid (R)-3-cyano-2-((E)-3-pyridin-3-yl-allanoylamino)-4,5,6,7-tetrahydro-benzo[b]thiophen-6-ylmethylester] | ≤ 501 nM | ≥ 100000 nM
COc1cccc(C(C)CC(=O)Nc2sc3c(c2C#N)CCC(OC(=O)NCc2ccnn2C)C3)c1 (stereo not shown) [Example 277, (2-Methyl-2H-pyrazol-3-ylmethyl)-carbamic acid 3-cyano-2-[3-(3-methoxy-phenyl)-butanoylamino]-4,5,6,7-tetrahydro-benzo[b] thiophen-6-yl ester] | ≤ 501 nM | ≥ 100000 nM
